Patent publication US20140322315A1, “CYSTEAMINE AND/OR CYSTAMINE FOR TREATING ISCHEMIC INJURY” (The Regents of the University of California, priority 2011, published 2014)
Values joined by “and” are separate entries in the source; they are usually repeats but may differ in a detail not shown here. Equal values may be shown once. “Also recorded” adds a separate entry of the source.

What was measured:
subjects with NAFLD = assay: Pilot study of EC-cysteamine in children with NAFLD: ALT, AST, BMI, leptin, responders; type: in vivo, human; conditions: for mean AST / mean ALT: all study subjects; for mean AST: baseline 60.9 IU/L; for mean ALT: baseline 123 IU/L; for mean leptin level: responders, baseline 21.3 ng/mL
Excerpt: Eleven children ≧10 years, with biopsy-proven NAFLD and an alanine aminotransferase (ALT) level ≧60 IU/L, were enrolled. They were either newly diagnosed or had not received specific therapy for NAFLD such as vitamin E or insulin-sensitizing drugs for at least 3 months before entering the study. All had undertaken standard of care lifestyle changes involving diet and exercise for more than 3 months. The study's primary outcome measure was normalization (≦40 IU/L) or 50% reduction in baseline serum ALT at 24 weeks of EC-cysteamine therapy; these subjects were deemed responders.
Subjects were treated for 24 wks and remained monitored for 24 weeks following its discontinuation. The mean EC-cysteamine dose ingested was 654 mg twice daily or 15.2 mg/kg/day (median dose 900 mg) for 24 wks.
During the pilot study blood was collected at pre-defined intervals. Serum was stored at −80° C. until time of assay. Adequate serum volumes were available in 10 of the 11 subjects with NAFLD and only up to 16 weeks post-treatment.

circulating leukocytes = conditions: Dohil et al., J. Pediatr 2006; cited from earlier work
[1] = set-up: species or system mice (C57BL/6); conditions: mouse, in vivo
[2] = tested on: LAD artery ligation ischemia/reperfusion; assay: Myocardial ischemia/reperfusion (LAD artery ligation) in mice: infarct area, echocardiography; type: in vivo, mice (C57BL/6); set-up: IA (Ischemic Area): unit not given beside the values
Procedure: To analyze ischemic damage and treatment with cysteamine a study in mice (C57BL/6-Male-12 weeks, 25 g) that are either pre-treated or naïve to cysteamine bitartrate was performed as follows.
Pre-treated animals received intra-peritoneal cysteamine, 60 mg/kg twice (120 mg/kg/day) 2 hours before surgery for LAD artery ligation. Following a 60 minute ligation period the obstruction was removed and another dose of cysteamine was given immediately at the time of reperfusion and also twice daily injections for 4 days following reperfusion. A control group received the same volumes of control IV solution injected instead of cysteamine. Acceptable volumes of blood were collected at baseline, and at predetermined time points after the ischemic insult in order to determine levels of surrogate markers of inflammation and plasma cysteamine. […] Before sacrifice, the LAD was re-occluded and Evan's Blue was injected through JVC in order to delineate the non-ischemic area. […] Echocardiography provided ventricular volume data as well as wall function. Hemodynamic studies provided muscle contractility data (specifically systolic data).
So far seven mice were studied. Four received control solution and 3 received cysteamine. […] This is a reduction of 13%.

adiponectin multimers [3] = molecular target: T1, adiponectin multimers (Homo sapiens, UniProt Q15848); assay: Lean control / healthy subjects' serum incubated 1 hour with 90 μM cysteamine, adiponectin multimers; type: biochemical
T1 construct: from tissue; host or cells: human serum (pretreatment NAFLD subjects; adults without NAFLD)
T1 sequence (Q15848 19-244): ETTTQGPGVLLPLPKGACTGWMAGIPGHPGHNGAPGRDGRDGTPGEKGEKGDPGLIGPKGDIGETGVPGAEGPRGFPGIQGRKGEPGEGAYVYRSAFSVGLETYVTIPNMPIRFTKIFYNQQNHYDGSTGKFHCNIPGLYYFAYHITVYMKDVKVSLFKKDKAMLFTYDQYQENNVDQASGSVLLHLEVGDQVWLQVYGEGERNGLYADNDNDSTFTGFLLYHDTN
Procedure: (§1) Total and multimeric adiponectin levels were measured in serum taken from: (1) subject with NAFLD collected at 0 and 24 wks of cysteamine therapy and again 16 wks after stopping therapy (i.e., 40 weeks); (2) pretreated 0-week subjects with NAFLD and adults without NAFLD at room temperature and at 37° C. and also after incubation with cysteamine 90 μM for 1 hour at 37° C.; and (3) pretreated 0-week subjects with NAFLD before and after incubation with cysteamine at varying concentrations (15, 30, 45, 60, 90, 120 μM) for 1 hour at 37° C. to establish dose-response profile.
(§2) Sodium dodecyl sulfate polyacrylamide gel electrophoresis (SDS-PAGE) was performed according to standard Laemmli's method. Sample buffer for non-reducing, non-heat denaturing conditions contained 3% SDS; 50 mmol/1 Tris-HCL, pH 6.8 and 20% glycerol. Proteins were separated using 3-8% Tris-Acetate Gels (Invitrogen, Carlsbad Calif.) with Tris-Acetate running buffer per manufacturer instructions. For immunoblotting, proteins were transferred to nitrocellulose membranes. Membranes were washed with Tween (Tris-buffered Saline, 0.1% […]) and incubated with monoclonal antibody (1:500 BD Transduction Laboratories, San Diego, Calif.). After washing with Tris-buffered saline with 0.1% Tween (4×5 min) membranes were incubated with L-COR secondary antibodies (LI-COR Biotechnology, Lincoln Nebr.) at 1:20,000. Adiponectin multimers were detected and quantified using the LICOR imager and software analysis program. Relative distribution of adiponectin multimers was determined by dividing band density by total density (cellular adiponectin) or by total adiponectin as determined by ELISA (Millipore, Billerica, Mass.). The percentage of adionectin multimer was then multiplied by the total adiponectin level to calculate absolute oligomer value.
In another experiment, 25 μl total sample volume (5 μl diluted serum+15 μl water+5 μl 5×LB) was incubated with or without cysteamine at 37° C.×1 hr. A control was prepared without cysteamine and incubated at room temperature for 1 hour on the bench. The preparations were then run on 2×15-well 1.5 mm 3-8% Tris-acetate gels. Primary antibody—mouse anti-adiponectin 1:500, overnight at 4° C. and secondary antibody—goat anti-mouse IR800 1:20,000.

adiponectin multimers [4] = molecular target: T1, adiponectin multimers; assay: Pretreatment serum of subjects with NAFLD incubated 1 hour with cysteamine, adiponectin multimers; type: biochemical
Procedure: as §1, §2

[5] = lean control serum, 37° C. + 90 μM cysteamine, 1 hr
[6] = NAFLD serum (n=10), cysteamine 1 hour at 37° C. (45 μM in FIG. 13), P<0.0001

mean terminal weight [1]: 18.3 g
mean percentage of total adiponectin comprised of LMW after incubation (adiponectin multimers [3]; healthy subjects, 90 μM cysteamine 1 hour, before 11.1%): 18.0%
mean percentage of total adiponectin comprised of HMW after incubation (adiponectin multimers [3]; healthy subjects, 90 μM cysteamine 1 hour, before 42.9%): 42.7%
mean percentage of total adiponectin comprised of MMW after incubation (adiponectin multimers [3]; healthy subjects, 90 μM cysteamine 1 hour, before 46.0%): 39.3%
LMW adiponectin absolute level change (adiponectin multimers [3]; [5]): no significant change
MMW adiponectin absolute level change (adiponectin multimers [3]; [5]): significant decrease
HMW adiponectin level change (adiponectin multimers [4]; NAFLD pretreatment serum, cysteamine 1 hour at 37° C.): unchanged
LMW adiponectin mean percent change vs pretreatment (adiponectin multimers [4]; [6]): increase
MMW adiponectin mean percent change vs pretreatment (adiponectin multimers [4]; [6]): significant reduction
mean percentage of total adiponectin comprised of HMW after incubation (adiponectin multimers [4]; NAFLD serum, cysteamine 1 hour at 37° C., before 8.2%): 8.6%
mean percentage of total adiponectin comprised of LMW after incubation (adiponectin multimers [4]; NAFLD serum, cysteamine 1 hour at 37° C., before 28.5%): 36.7%
mean percentage of total adiponectin comprised of MMW after incubation (adiponectin multimers [4]; NAFLD serum, cysteamine 1 hour at 37° C., before 63.3%): 54.7%
SMILES: NCCS [cysteamine, Cysteamine]
responders (ALT normalization ≦40 IU/L or 50% reduction at 24 weeks) (subjects with NAFLD; 24 weeks EC-cysteamine therapy, subjects with serum analyzed): Seven of the 10
mean AST (subjects with NAFLD; 24 weeks of treatment, P=0.001): 32 IU/L
mean ALT (subjects with NAFLD; 24 weeks of treatment, P=0.003): 55 IU/L
mean AST (subjects with NAFLD; 40 weeks (16 weeks off therapy), P=0.012): 35 IU/L
mean ALT (subjects with NAFLD; 40 weeks (16 weeks off therapy), P=0.055): 71 IU/L
mean leptin level (subjects with NAFLD; 24 weeks, P=0.04): 15.7 ng/mL
mean leptin level (subjects with NAFLD; 40 weeks): 19.5 ng/mL
intracellular cystine levels in circulating leukocytes (circulating leukocytes): lowering
body weight reduction [1]: 14%
IA (Ischemic Area) ([2]; MEAN of 3 mice): 7.99
IA/LV (cysteamine) (%) ([2]; MEAN of 3 mice, control 17.66%): 8.12%
IA/AAR (cysteamine) (%) ([2]; MEAN of 3 mice, control 58.57%): 33.24%
mean end diastolic volume (EDV), 24 h vs 72 h ([2]; cysteamine group, p=0.032): significant difference; also recorded: significant reduction
relative amounts of ischemic damage compared with control groups ([2]; cysteamine treated vs control): about half
IA/AAR (cysteamine) (%) ([2]; individual mice (raw data)): 38.02% and 34.78% and 26.92%
IA/LV (cysteamine) (%) ([2]; individual mice (raw data)): 12.66% and 6.24% and 5.47%
IA (Ischemic Area) ([2]; individual mice (raw data), cysteamine 60 mg/kg twice daily): 9.37 and 11.14 and 3.46
IA/AAR ratio, cysteamine vs control group ([2]; p=0.004): significant reduction; also recorded: significant difference
IA/LV ratio, cysteamine vs control group ([2]; p=0.008): significant reduction; also recorded: significant difference
percentage change in ESV between 24 h and 72 h, vs control group ([2]; p=0.039): significantly greater percentage reduction
percentage change in EDV between 24 h and 72 h, vs control group ([2]; p=0.04): significantly greater percentage reduction; also recorded: significant difference
LMW adiponectin mean percent change vs baseline (adiponectin multimers [3]; lean control/healthy serum, 90 μM cysteamine, 1 hr, P<0.005): increase; also recorded: significant percent change
MMW adiponectin mean percent change vs baseline (adiponectin multimers [3]; lean control/healthy serum, 90 μM cysteamine, 1 hr, P<0.01): reduction; also recorded: significant percent change
HMW adiponectin level change (adiponectin multimers [3]; lean control/healthy serum, 37° C. + 90 μM cysteamine, 1 hr): unchanged; also recorded: no significant change
